Activity calls are given as the source filed them.

Data on five compounds can be found in ChEMBL document CHEMBL1201862, “PubChem BioAssay data set” (2004).

For test [1], the target named is T1, Endoribonuclease toxin MazF (Escherichia coli K-12, UniProt P0AE70).
T1 sequence (P0AE70 whole entry): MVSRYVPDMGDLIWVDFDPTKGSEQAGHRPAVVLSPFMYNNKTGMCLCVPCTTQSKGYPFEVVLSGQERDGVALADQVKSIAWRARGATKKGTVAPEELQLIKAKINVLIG
Kind of test: MazEF toxin-antitoxin RNase activation – biochemical, fluorescence, single-stranded RNA substrate, SAR follow-up (AID 588603). Format: functional.

Test [2] deals with T1, Endoribonuclease toxin MazF. Kind of test: activation of MazEF endoribonuclease cleavage – biochemical, fluorescence, single-stranded RNA substrate, uHTS hits, dose response (AID 588481). In kind it is functional.
In another test the test system is MEF. Kind of test: SAR analysis of small molecule cytotoxicity of MazEF TA System activators in embryonic fibroblast (MEF) cells. [Related pubchem assays (depositor defined):AID504720, AID504743]. In kind it is functional. The following applies: Mus musculus.
Test [3] has as its target T1, Endoribonuclease toxin MazF. The experiment in a line: SAR analysis of small molecule activators of the MazEF TA System via a fluorescence-based single-stranded RNase assay counterscreen. [Related pubchem assays (depositor defined):AID504720, AID504743]. Format: functional. Background: The purpose of a counterscreen is to sort out artefacts and off-target activity.

The target is the same in test [4]. The experiment in a line: substrate-only fluorescence increase artefacts – biochemical, single-stranded RNase substrate, counter-screen for MazEF activator project, dose response (AID 588502). Format: functional.
Test [5] has as its system Streptococcus sp. 'group A'. The experiment in a line: Streptococcus pyogenes SK(-)GAS viability under kanamycin – luminescence, BacTiterGlo, confirmation, counter-screen for streptokinase expression inhibitor project, dose response (AID 1900). In kind it is functional, organism-based.
For a further test, the target named is T2, Streptokinase A (Streptococcus pyogenes serotype M1, UniProt P10520).
T2 sequence (P10520 whole entry): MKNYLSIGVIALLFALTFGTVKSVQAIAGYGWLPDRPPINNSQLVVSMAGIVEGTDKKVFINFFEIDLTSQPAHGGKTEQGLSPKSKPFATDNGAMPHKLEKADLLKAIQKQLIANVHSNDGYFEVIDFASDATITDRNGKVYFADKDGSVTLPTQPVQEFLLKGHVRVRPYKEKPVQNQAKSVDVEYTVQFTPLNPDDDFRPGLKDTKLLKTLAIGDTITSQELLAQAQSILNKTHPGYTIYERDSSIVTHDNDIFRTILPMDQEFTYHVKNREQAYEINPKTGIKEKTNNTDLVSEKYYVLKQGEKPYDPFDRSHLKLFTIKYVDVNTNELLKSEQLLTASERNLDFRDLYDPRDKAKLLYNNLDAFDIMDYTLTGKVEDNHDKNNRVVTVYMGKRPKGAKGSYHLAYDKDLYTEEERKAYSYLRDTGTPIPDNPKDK
The experiment in a line: viability-normalized secreted streptokinase activity reduction – plasminogen activation absorbance, OD405, dose response (AID 1914).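 Note: secreted streptokinase activity via plasminogen activation per viability signal from cell pellet.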 Format: functional, Streptococcus pyogenes M1 GAS.

For the next test, the system named is Streptococcus. Kind of test: GAS UMAA2166 growth inhibition – luminescence, BacTiterGlo, counter-screen for streptokinase expression inhibitor project, dose response (AID 1915).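 Note: potency for reduction of bacterial viability or growth.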 In kind it is functional, organism-based.
The next test concerns the target Cysteine protease ATG4B (Homo sapiens, UniProt Q9Y4P1). Format: functional.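 Note: Fluorescence-based dose-response confirmation assay measuring inhibition of ATG4B activity.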
A further test deals with Phospholipase A2 (Homo sapiens, UniProt P04054). Format: functional.
Sequence of Phospholipase A2 (P04054 whole entry, the tested form may be a part): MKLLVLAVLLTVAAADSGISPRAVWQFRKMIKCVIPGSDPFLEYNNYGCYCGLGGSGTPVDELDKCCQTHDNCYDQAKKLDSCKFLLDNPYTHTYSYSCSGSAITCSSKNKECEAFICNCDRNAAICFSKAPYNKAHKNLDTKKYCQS
A further test relates to CHO. Kind of test: CHO cell viability loss, potency – luminescence, cytotoxicity control for TLR9-MyD88 binding inhibitor project, dose response (AID 588339).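 Note: CHO cells stably coexpressing TLR9 and MyD88 fusions from primary screen; compound exposure lasted 48 hours before viability readout.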 The following applies: Cricetulus griseus. Format: functional, cell-based, hamster.
Another test deals with Beta Lactamase (Pseudomonas aeruginosa, UniProt Q932Y6). The experiment in a line: BLA reporter interference, concentration series – BLA reporter cells, FRET fluorescence, artefact control for TLR9-MyD88 binding inhibitor project, dose response (AID 588341).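 Note: cell based assay in CHO-K1 cells stably expressing beta-lactamase.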 In kind it is cell-based.
Sequence of Beta Lactamase (Q932Y6 whole entry): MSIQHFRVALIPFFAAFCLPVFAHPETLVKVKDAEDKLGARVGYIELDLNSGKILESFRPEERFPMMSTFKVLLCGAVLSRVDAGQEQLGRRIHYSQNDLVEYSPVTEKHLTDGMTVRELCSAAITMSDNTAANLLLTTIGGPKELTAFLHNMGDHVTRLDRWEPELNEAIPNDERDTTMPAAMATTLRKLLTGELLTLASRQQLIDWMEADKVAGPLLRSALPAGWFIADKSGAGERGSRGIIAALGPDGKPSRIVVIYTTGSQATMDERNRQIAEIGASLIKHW
Test [6] has as its target T3, Sentrin-specific protease 8 (Homo sapiens, UniProt Q96LD8).
T3 sequence (Q96LD8 whole entry): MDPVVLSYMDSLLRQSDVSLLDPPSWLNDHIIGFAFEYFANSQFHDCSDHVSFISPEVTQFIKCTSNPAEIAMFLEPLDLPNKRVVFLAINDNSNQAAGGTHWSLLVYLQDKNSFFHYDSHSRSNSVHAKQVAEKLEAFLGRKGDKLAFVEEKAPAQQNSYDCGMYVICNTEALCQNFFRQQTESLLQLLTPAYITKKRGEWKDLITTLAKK
In kind it is functional.

For test [7], the target named is T3, Sentrin-specific protease 8. In kind it is functional. This is another data set of the same source.
A further test concerns the target T4, Caspase-3 (Homo sapiens, UniProt P42574).
T4 sequence (P42574 whole entry): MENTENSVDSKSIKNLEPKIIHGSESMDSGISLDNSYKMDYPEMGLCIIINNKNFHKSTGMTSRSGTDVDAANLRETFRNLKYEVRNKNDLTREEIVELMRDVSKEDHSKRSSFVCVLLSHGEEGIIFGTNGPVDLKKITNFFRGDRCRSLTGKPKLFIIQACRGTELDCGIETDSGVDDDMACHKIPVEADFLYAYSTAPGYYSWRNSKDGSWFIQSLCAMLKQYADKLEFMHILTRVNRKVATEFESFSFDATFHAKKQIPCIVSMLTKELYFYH
Kind of test: inhibition of recombinant caspase-3 activity – biochemical, luminescence, set 2, selectivity assay for SENP protease inhibitor project, SAR follow-up (AID 588599). Format: functional.

In test [8] the target is T3, Sentrin-specific protease 8. Kind of test: inhibition of sentrin protease 8 – biochemical, luminescence, set 2, SAR follow-up (AID 588601). In kind it is functional.
The target of test [9] is T5, Sentrin-specific protease 7 (Homo sapiens, UniProt Q9BQF6).
T5 sequence (Q9BQF6 whole entry): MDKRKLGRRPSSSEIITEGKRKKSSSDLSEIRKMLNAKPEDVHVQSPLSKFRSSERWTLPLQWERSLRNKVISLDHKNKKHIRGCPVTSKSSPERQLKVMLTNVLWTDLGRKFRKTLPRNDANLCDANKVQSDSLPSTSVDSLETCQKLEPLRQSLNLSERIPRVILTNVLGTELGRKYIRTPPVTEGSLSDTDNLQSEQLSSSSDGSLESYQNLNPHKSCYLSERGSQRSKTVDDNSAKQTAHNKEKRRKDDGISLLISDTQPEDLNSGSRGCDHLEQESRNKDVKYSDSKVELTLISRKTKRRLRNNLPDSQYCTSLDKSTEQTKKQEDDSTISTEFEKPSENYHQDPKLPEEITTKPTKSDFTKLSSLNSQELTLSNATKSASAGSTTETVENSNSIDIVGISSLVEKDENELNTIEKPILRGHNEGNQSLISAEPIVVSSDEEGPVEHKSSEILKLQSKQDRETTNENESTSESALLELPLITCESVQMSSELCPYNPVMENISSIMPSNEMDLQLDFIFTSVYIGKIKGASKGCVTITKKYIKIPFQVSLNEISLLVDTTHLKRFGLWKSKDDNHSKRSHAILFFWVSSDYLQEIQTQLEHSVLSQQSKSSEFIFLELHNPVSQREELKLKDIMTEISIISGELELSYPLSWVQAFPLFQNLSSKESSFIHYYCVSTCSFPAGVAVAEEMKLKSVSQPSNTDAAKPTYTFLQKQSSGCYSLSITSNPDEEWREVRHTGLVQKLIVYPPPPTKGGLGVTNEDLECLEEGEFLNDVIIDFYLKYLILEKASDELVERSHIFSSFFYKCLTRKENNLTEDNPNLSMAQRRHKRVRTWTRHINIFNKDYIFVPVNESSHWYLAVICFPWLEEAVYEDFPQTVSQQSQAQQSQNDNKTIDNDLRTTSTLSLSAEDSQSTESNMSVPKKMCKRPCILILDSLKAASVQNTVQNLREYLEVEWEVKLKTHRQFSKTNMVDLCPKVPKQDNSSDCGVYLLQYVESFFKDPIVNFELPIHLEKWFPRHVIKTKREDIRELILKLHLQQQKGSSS
The experiment in a line: inhibition of human SENP7 cleavage activity – biochemical, luminescence, set 2, SAR follow-up (AID 588600). In kind it is functional.

Test [10] addresses T6, Sentrin-specific protease 6 (Homo sapiens, UniProt Q9GZR1).
T6 sequence (Q9GZR1 whole entry): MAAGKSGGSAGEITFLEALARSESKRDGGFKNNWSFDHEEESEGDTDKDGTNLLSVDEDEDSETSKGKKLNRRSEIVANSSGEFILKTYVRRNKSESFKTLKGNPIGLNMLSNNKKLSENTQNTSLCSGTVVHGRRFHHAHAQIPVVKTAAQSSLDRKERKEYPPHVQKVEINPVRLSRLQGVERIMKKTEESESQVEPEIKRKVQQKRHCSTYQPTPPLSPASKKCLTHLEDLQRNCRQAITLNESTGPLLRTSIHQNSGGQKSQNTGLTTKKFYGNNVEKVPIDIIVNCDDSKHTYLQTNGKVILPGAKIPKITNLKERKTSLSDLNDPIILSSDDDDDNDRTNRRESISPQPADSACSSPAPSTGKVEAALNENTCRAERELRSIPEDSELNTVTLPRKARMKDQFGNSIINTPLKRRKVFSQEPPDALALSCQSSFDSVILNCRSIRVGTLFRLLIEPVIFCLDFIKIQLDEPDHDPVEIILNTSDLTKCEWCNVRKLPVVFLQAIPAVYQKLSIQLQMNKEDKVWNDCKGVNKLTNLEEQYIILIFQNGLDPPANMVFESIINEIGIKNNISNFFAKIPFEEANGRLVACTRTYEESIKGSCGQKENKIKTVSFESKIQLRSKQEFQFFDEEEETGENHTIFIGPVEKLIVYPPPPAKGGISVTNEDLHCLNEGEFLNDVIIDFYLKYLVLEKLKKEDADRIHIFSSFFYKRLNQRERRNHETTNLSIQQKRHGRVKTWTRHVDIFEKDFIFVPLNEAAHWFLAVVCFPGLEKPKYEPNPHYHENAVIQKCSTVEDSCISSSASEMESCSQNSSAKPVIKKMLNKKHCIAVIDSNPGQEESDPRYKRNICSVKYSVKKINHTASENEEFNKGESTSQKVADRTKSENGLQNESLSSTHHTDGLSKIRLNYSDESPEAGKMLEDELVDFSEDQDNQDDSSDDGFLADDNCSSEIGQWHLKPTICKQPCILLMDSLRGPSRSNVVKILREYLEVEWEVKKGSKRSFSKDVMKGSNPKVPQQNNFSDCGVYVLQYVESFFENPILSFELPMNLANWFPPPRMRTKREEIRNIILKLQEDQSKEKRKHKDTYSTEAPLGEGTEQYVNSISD
Kind of test: inhibition of human SENP6 catalytic domain – biochemical, luminescence, set 2, SAR follow-up (AID 588598). In kind it is functional.

The target in the next test is T7, CAAX prenyl protease 2 (Saccharomyces cerevisiae S288c, UniProt Q03530).
T7 sequence (Q03530 whole entry): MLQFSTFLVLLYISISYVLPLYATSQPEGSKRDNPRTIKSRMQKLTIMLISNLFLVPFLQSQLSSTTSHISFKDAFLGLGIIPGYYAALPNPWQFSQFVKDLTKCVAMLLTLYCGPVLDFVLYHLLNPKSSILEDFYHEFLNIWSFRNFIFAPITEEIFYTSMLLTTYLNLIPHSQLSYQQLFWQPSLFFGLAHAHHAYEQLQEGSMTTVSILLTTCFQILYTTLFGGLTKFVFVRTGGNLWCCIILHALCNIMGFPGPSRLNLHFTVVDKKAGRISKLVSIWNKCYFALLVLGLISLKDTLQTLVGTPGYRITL
The experiment in a line: inhibition of Rce1p peptide cleavage – biochemical, plate reader, dry powder retest, dose response (AID 588851).

Sequence of Cysteine protease ATG4B (Q9Y4P1 whole entry): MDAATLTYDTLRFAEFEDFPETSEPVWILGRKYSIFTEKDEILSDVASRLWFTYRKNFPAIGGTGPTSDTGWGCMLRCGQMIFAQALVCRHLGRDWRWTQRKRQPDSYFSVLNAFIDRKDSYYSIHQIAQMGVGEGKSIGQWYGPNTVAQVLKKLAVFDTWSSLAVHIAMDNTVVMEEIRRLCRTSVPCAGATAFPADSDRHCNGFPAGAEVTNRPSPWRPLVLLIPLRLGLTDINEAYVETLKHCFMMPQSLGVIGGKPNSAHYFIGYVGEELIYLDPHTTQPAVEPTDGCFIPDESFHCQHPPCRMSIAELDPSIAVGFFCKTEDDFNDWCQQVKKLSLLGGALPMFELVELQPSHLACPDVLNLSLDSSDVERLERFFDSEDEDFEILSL

One may read the EC50 as the midpoint of the concentration-response curve. One may read the CC50 as the concentration at which the toxic effect on the cells reaches its halfway point. `CCN1C(C)=C(C)S/C1=C1\SC(=S)N(C2CCCCC2)C1=O`: the EC50 in test [1] is 22.4 µM (inactive); in test [2], 29.1 µM (inactive); in [3], > 99 µM (inactive); in test [4] it was > 99 µM (inactive). Also, in the test on MEF, the CC50 was > 99 µM (inactive).
What is called IC50 is the concentration that inhibits the measured activity by half. As for `COc1cc(/C=C2\S/C(=N\c3ccccc3)N(CCc3c[nH]c4ccccc34)C2=O)ccc1OC(C)C(=O)O` (centres undefined), the EC50 is 0.943 µM (active) in test [5], 4.12 µM (active) on Streptokinase A and 11.5 µM (active) in the test on Streptococcus. Moreover, the IC50 is 8.13 µM (active) at Cysteine protease ATG4B and 5.47 µM (active) at Phospholipase A2.
Consider `Cc1ccc(N2C(=O)Cc3ccccc3C2=O)cc1`, for which the IC50 was > 49.8 µM (inactive) with CHO, 4.59 µM (active) at Beta Lactamase, > 100 µM (inactive) in test [6] and 3.36 µM (active) in [7].
As for `CC(C)(C)C(=O)N1CCC(C(=O)Nc2nc3c(F)cc(F)cc3s2)CC1`, the IC50 (at Caspase-3; in [8]; in test [9]; in test [10]) was > 99 µM (inactive) each time.
Usually AC50 stands for the midpoint of the concentration-response curve, whichever way the signal moves. On to `CCCOc1ccc(-c2c(C(=O)N/N=C/c3cccs3)nnn2-c2nonc2N)cc1`, for which the AC50 at CAAX prenyl protease 2 is 54.9 µM (active).
